Results taken from PubChem BioAssay (NCI).
Values joined by “and” are separate entries in the source; they are usually repeats but may differ in a detail not shown here. Equal values may be shown once.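 Method: 48-hour compound exposure of cells in 96-well plates, five concentrations, linear interpolation of endpoints. At the GI50, growth is halved. TGI denotes the concentration required for complete inhibition of growth.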

Assays:
Test in all cases: inhibition of tumour cell growth, NCI panel, 48 h
A498 renal = test system: A498 renal
MDA-N = test system: MDA-N
SK-MEL-28 melanoma = test system: SK-MEL-28 melanoma
SF-268 CNS = test system: SF-268 CNS
SNB-75 CNS = test system: SNB-75 CNS
DMS 114 small cell lung = test system: DMS 114 small cell lung
SNB-78 CNS = test system: SNB-78 CNS
DLD-1 colon = test system: DLD-1 colon
KM20L2 colon = test system: KM20L2 colon
M19-MEL melanoma = test system: M19-MEL melanoma
XF 498 CNS = test system: XF 498 CNS

SMILES | TGI (A498 renal) | TGI (MDA-N) | TGI (SK-MEL-28 melanoma) | TGI (SF-268 CNS) | TGI (SNB-75 CNS) | TGI (DLD-1 colon) | TGI (KM20L2 colon) | TGI (M19-MEL melanoma) | TGI (XF 498 CNS) [µM] | other results
COC1=C(OC)C(=O)C(C/C=C/c2c(Cl)nc3sccn23)=C(C)C1=O | 48.2 µM | 19.8 µM | 33.7 µM | 38 µM | – | – | – | – | – | –
C[n+]1ccc2/c(=C\C#N)c3ccccc3n21 | – | > 100 µM | 53.5 µM | > 100 µM | – | – | – | – | – | –
CC(=O)C(C(=O)C(=O)Nc1cc(Cl)c(Cl)cc1Cl)c1csc(N)n1 (stereo not drawn) | > 100 µM | – | > 100 µM | > 100 µM | > 100 µM | > 100 µM | > 100 µM | > 100 µM | > 100 | TGI (DMS 114 small cell lung): > 100 µM; TGI (SNB-78 CNS): > 100 µM
O=[N+]([O-])c1cc(C(F)(F)F)cc2c1SC1=Nc3ccccc3CN12 | > 100 µM | – | > 100 µM | > 100 µM | > 100 µM | > 100 µM | > 100 µM | > 100 µM | > 100 | TGI (DMS 114 small cell lung): > 100 µM; TGI (SNB-78 CNS): > 100 µM
Oc1ccccc1CNCc1ccccc1O | > 100 µM | > 100 µM | > 100 µM | > 100 µM | > 100 µM | – | – | – | – | –
NCCNc1ccc(NCCN)c2c1C(=O)c1c(O)ccc(O)c1C2=O | 0.37 µM | 2.33 µM and 1.43 µM | 2.28 µM and 2.15 µM | 0.985 µM and 3.24 µM | 0.206 µM and 0.429 µM | 1.05 µM and 0.974 µM | 1.5 µM and 1.53 µM | 1.04 µM and 1.17 µM | 0.298 | GI50 (SNB-75 CNS): 0.0227 µM; GI50 (MDA-N): 0.26 µM; GI50 (SF-268 CNS): 0.0222 µM; GI50 (DLD-1 colon): 0.069 µM; GI50 (KM20L2 colon): 0.251 µM; GI50 (M19-MEL melanoma): 0.104 µM
CCC/C=C/C=C\C(=O)O[C@@H]1[C@@H](C)[C@]2(O)[C@@H]3C=C(C)C(=O)[C@H]3CC(COC(C)=O)=C[C@H]2[C@@H]2C(C)(C)[C@]12OC(C)=O | 33.3 µM | – | 86.7 µM | 87.7 µM | 121 µM | 57.2 µM | 88.8 µM | 76.5 µM | 16.7 | TGI (DMS 114 small cell lung): 94.6 µM; TGI (SNB-78 CNS): 152 µM
CCCc1cn2c(/C=N/N=C(N)N)c(-c3ccc([N+](=O)[O-])cc3)nc2s1 | 10.6 µM | – | 4.66 µM | – | – | – | – | – | – | –
Cn1cc(-c2csc(-c3cn(CCCN4CCCCC4)c4ccc(Br)cc34)n2)c2cccnc21 | 14 µM | – | 3.2 µM | – | 5.8 µM | – | – | – | – | GI50 (SNB-75 CNS): 1.44 µM; GI50 (A498 renal): 3.69 µM; GI50 (SK-MEL-28 melanoma): 1.71 µM
Oc1c(Cl)c(Cl)c(O)c(-c2cnc(-c3ncc(-c4c(O)c(Cl)c(Cl)c(O)c4Cl)s3)s2)c1Cl | – | – | 75.6 µM | 55.3 µM | 71.7 µM | – | – | – | – | –
O=C(N/N=C/c1cc(Cl)cc(Cl)c1[OH2+])c1ccncc1.O=S(=O)([O-])[O-].[Fe+2] | – | – | > 100 µM | > 100 µM | > 100 µM | – | 36.3 µM | – | – | –
CC(=O)OC1(C)CC(C)C(=O)C(C(O)CC2CC(=O)NC(=O)C2)C1 (stereo not drawn) | 0.266 µM and 0.0863 µM | 0.204 µM and 0.215 µM | 0.134 µM and 0.688 µM | 1.42 µM | 0.0119 µM | – | – | – | – | –
COc1cccc2c1C(=O)c1c(O)c3c(c(O)c1C2=O)CC(O)(C(C)=O)CC3OC1OC(COC(C)=O)C(OC(C)=O)C(OC(C)=O)C1OC(C)=O (stereo not drawn) | – | – | > 100 µM | 55.1 µM | 27 µM | – | – | – | – | –
C[N+]1(C)C/C(=C\C=C\c2ccccc2)C(=O)/C(=C/C=C/c2ccccc2)C1 | > 94.9 µM | 11.1 µM | 17 µM | 43.7 µM | 40.3 µM | 45.5 µM | 33.1 µM | 31.7 µM | 57.4 | TGI (DMS 114 small cell lung): 10.9 µM; TGI (SNB-78 CNS): > 100 µM
CC(C)(C)c1cc(OCc2n[nH]c(=S)n2N)c(Cl)cc1OCc1n[nH]c(=S)n1N | > 100 µM | > 100 µM | > 100 µM | > 100 µM | > 100 µM | – | – | – | – | –
COc1cc2c(cc1OC)-c1cc3cc(OC)c(OC)cc3c(C)[n+]1CC2 (tested in a mixture with another compound) | > 100 µM | > 100 µM | > 100 µM | > 100 µM | – | – | – | – | – | –
CCn1c(=O)c2c3ccc(O)cc3[nH]c2c2ccc(O)cc21 | > 100 µM | > 100 µM | > 100 µM | > 100 µM | > 100 µM | – | – | – | – | –
O=C(N/N=C/c1cc(Cl)cc(Cl)c1[O-])c1ccccc1O.O=C(N/N=C/c1cc(Cl)cc(Cl)c1[O-])c1ccccc1O.[Fe+2] | – | – | 40.6 µM | 38.9 µM | 72.9 µM | – | 27.9 µM | – | – | GI50 (KM20L2 colon): 14.1 µM
CCN(CC)CCCNC(=O)c1ccccc1Nc1c(Cl)cccc1Cl | – | – | 9.51 µM | 30.2 µM | 15.4 µM | 23.8 µM | 5.58 µM | 11 µM | 9.71 | TGI (DMS 114 small cell lung): 26.2 µM; TGI (SNB-78 CNS): 31.7 µM
O=[N+]([O-])c1ccc(C2NC(=S)NC3c4cc([N+](=O)[O-])ccc4CCCC23)cc1 (stereo not drawn) | > 100 µM | – | > 100 µM | > 100 µM | 44.2 µM | – | – | – | – | –
Nc1n[nH]c(N)n1 | > 10000 µM | > 10000 µM | > 10000 µM | > 10000 µM | > 10000 µM | > 10000 µM | > 10000 µM | > 10000 µM | 2750 | TGI (DMS 114 small cell lung): 6880 µM; TGI (SNB-78 CNS): > 8560 µM
O=c1[nH]c(Br)nc2n[nH]nc12 | > 100 µM | > 100 µM | – | > 100 µM | > 100 µM | – | – | – | – | –
